Reference: US20160206623A9, “Composition For Prevention of Vasoactivity in the Treatment of Blood Loss and Anemia” (priority 2012, published 2016)

Tested on: segments of the rat thoracic aorta (RTA)
Test: Vasoactivity (isometric tension) of rat thoracic aorta rings in tissue bath

## COc1ccc([C@@H]2Sc3ccccc3N(CCN(C)C)C(=O)[C@@H]2OC(C)=O)cc1 [DLT, Diltiazam]
HES 4.4 uM + PHE, DLT 10^-7 to 10^-5 M (FIG. 8, a2-d2)
  vasoconstriction with HES + PHE: the vasoconstriction is reduced
PHE without hemoglobin, different concentrations of additive (DLT 10^-7 to 10^-5 M)
  effect on PHE induced vasoconstriction: reduces the vasoconstrictive effect of PHE

## CNC[C@H](O)c1cccc(O)c1 [PHE, Phenylephrine]
PHE added after SFH, preliminary experiments
  tension of the RTA: increase the tension of the RTA significantly

## COc1cc2nc(N3CCN(C(=O)C4CCCO4)CC3)nc(N)c2cc1OC (stereo not shown) [TER, Terazosin]
Terazosin suboptimal 10^-8 M, SFH+PHE (FIG. 9)
  vasoconstrictive effect of SFH: reduces the vasoconstrictive effect of SFH
